The target of one experiment is T1, human Eg5 motor domain (Homo sapiens, UniProt P52732).
T1 construct: A plasmid expressing the motor domain of human Eg5 was constructed; made in house; host or cells: Escherichia coli BL21 (DE3)
T1 sequence (P52732 18-359 limits assumed): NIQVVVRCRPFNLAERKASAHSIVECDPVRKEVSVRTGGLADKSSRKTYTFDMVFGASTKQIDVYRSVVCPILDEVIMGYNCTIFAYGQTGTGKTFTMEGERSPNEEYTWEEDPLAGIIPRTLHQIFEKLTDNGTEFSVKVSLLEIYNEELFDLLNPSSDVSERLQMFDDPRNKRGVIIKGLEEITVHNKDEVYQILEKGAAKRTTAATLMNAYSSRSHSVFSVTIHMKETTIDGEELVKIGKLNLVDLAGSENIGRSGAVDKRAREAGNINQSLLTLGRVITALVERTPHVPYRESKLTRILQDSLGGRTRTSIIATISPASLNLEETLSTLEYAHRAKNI
In words: Eg5 enzyme inhibition test (2): ATPase activity of recombinant human Eg5 motor domain. Particulars: tubulin/paclitaxel, 30° C. for 30 minutes, concentration-dependent inhibition. The experiment is classed as biochemical. As to the method:
A recombinant human Eg5 motor domain protein was prepared by referring to the literature [Biochemistry, Vol. 35, p. 2365 (1996)]. A plasmid expressing the motor domain of human Eg5 was constructed, and transformed into Escherichia coli BL21 (DE3). The transformant was cultured at 25° C., and when the OD600 reached 0.74, isopropyl-β-D-thiogalactoside was added at a final concentration of 0.5 mmol/L. The transformant was further cultured for 4 hours, and then the culture medium was centrifuged to collect the cells. The cells were suspended in a buffer and ultrasonicated, and then the sonicated solution was centrifuged to recover the supernatant. The supernatant was purified by cation exchange column chromatography to obtain a partially purified sample. Furthermore, the partially purified sample was purified by gel filtration column chromatography to obtain a finally purified sample.
Measurement of the ATPase activity of Eg5 was carried out by referring to the literatures [EMBO Journal, Vol. 13, p. 751 (1994); Proc. Natl. Acad. Sci. USA, Vol. 89, p. 4884 (1992)]. The following two kinds of solutions were prepared: Solution A consisting of 25 mmol/L piperazine N,N′-bis(ethanesulfonate) (PIPES)/KOH (pH 6.8), 1 mmol/L ethylene glycol-bis(2-aminoethyl ether)tetraacetic acid (EGTA), 2 mmol/L MgCl2, 1 mmol/L dithiothreitol (DTT), 5 μmol/L paclitaxel, 167 μg/mL bovine serum albumin (BSA), 41.7 μg/mL tubulin (Cytoskeleton, Catalog No. TL238), 333 μmol/L MESG substrate (2-amino-6-mercapto-7-methylpurine riboside) (Molecular Probes, Catalog Number E-6646), 1.67 U/mL purine nucleoside phosphorylase (Molecular Probe, Catalog No. E-6646) and 1.33 μg/mL of the human Eg5 motor domain purified sample, and Solution B consisting of 25 mmol/L piperazine N,N′-bis(ethanesulfonate) (PIPES)/KOH (pH 6.8), 1 mmol/L ethylene glycol-bis(2-aminoethyl ether)tetraacetic acid (EGTA), 2 mmol/L MgCl2, 1 mmol/L dithiothreitol (DTT), 5 μmol/L paclitaxel and 2.5 mmol/L ATP. Solution A was dispensed into each well of a 96-well plate as 45 μL portions. Solution B was used to serially dilute a test compound. The diluted test compound solutions in a volume of 30 μL were mixed with Solution A added beforehand in each well of the 96-well plate to start the enzymatic reaction. The enzymatic reaction was performed at 30° C. for 30 minutes. Absorbance at 360 nm, which serves as an index of the ATPase activity, was measured using a plate reader (Molecular Device, SpectraMax 340PC^384). The absorbance observed in the presence of Eg5 and absence of the test compound was defined 100%, and the absorbance observed in the absence of both Eg5 and the test compound was defined 0%. The relative activity was calculated to calculate IC50 value.

Experiment [1] deals with HCT 116 human colon carcinoma cells. As to the kind of experiment: Antiproliferative activity against HCT 116 human colon carcinoma cells (XTT, 72 hours). The experiment is classed as cell-based. Particulars: read-out: GI50, concentration of compound which induces 50% inhibition of cell proliferation, HCT 116 cells, 72 hours incubation. As to the method: HCT 116 cells (ATCC No.: CCL-247) were placed on a 96-well microtiter plate (Nunc, 167008) at a density of 1×10^3 cells/well. The plate was incubated in a 5% CO2 incubator at 37° C. for 24 hours, and then to the plate was added test compounds diluted stepwise to […] in total, and the plate was further incubated in a 5% CO2 incubator at 37° C. for 72 hours. To the culture medium, the XTT (sodium 3′-[1-(phenylaminocarbonyl)-3,4-tetrazolium]-bis(4-methoxy-6-nitro)benzenesulfonic acid hydrate) labeling mixture (Roche Diagnostics, 1465015) was dispensed in […] portions, then the plate was incubated in a 5% CO2 incubator at 37° C. for 1 hour, and the absorbance was measured at 490 nm and 655 nm with a microplate spectrophotometer (Bio-Rad, Model 550).
GI50 calculation method: The value (difference in absorbance) was calculated by subtracting the absorbance at 655 nm from the absorbance at 490 nm of each well.
A general note: Formazan colour is commonly taken as a measure of viable cells.

pIC50: −log10 of the molar value.

As a reminder, the pIC50 is the IC50 on a negative log10 scale, so that one unit is a factor of ten. With `CNCCCC1(c2ccccc2)SC(NC(=O)C(C)(C)C)=NN1C(=O)C(C)(C)C` (stereo not drawn) [Compound 23], at human Eg5 motor domain, the pIC50 was at least 5.30.
With `CC(=O)N1N=C(NC(=O)C(C)(C)C)SC1(CCCN)c1ccccc1` (stereo not drawn) [Compound 88], the negative-log IC50 (pIC50) on human Eg5 motor domain was at least 5.30.
With `CC(=O)N1N=C(N2CCCCC2=O)SC1(CCNC(=O)CCCN(C)C)c1ccccc1` (stereo not drawn) [Compound 144], in experiment [1], the GI50 was below 10 µM. Besides, the pIC50 at human Eg5 motor domain is at least 5.30.
In the case of `CN(C)CCS(=O)(=O)NCCCC1(c2ccccc2)SC(N2CCCCC2=O)=NN1C(=O)C(C)(C)C` (stereo not drawn) [Compound 85], the GI50 in experiment [1] is below 10 µM. Also, the negative logarithm of the IC50 (pIC50) on human Eg5 motor domain was at least 5.30.
For the compound `CCOCCNCCC1(c2ccccc2)SC(NC(=O)C(C)(C)C)=NN1C(=O)C(C)(C)C` (stereo not drawn) [Compound 3], the pIC50 at human Eg5 motor domain was at least 5.30.
Turning to `CC(C)(C)C(=O)NC1=NN(C(=O)C(C)(C)C)C(CCCNC(CO)CO)(c2ccccc2)S1` (stereo not drawn) [Compound 76], in experiment [1], the GI50 was below 10 µM. Moreover, at human Eg5 motor domain, the pIC50 was at least 5.30.
On to `CC(C)(C)C(=O)NC1=NN(C(=O)C(C)(C)C)C(CCCNC(=O)CN)(c2ccccc2)S1` (stereo not drawn) [Compound 73], for which the pIC50 at human Eg5 motor domain is at least 5.30.
On to `CC(C)(C)C(=O)NC1=NN(C(=O)C(C)(C)C)C(CCNC(=O)C2CCCN2)(c2ccccc2)S1` (stereo not drawn) [Compound 59], for which the GI50 in experiment [1] was below 10 µM. Further, the negative logarithm of the IC50 (pIC50) on human Eg5 motor domain was at least 5.30.
The corresponding values for `CC(C)(C)C(=O)NC1=NN(C(=O)C(C)(C)C)C(COC(=O)NCCN2CCCC2)(c2ccccc2)S1` (stereo not drawn) [Compound 181] are below 10 µM and at least 5.30.
In the case of `COC(=O)N1CCN(CCCC2(c3ccccc3)SC(NC(=O)C(C)(C)C)=NN2C(=O)C(C)(C)C)CC1` (stereo not drawn) [Compound 122], the GI50 in experiment [1] is below 10 µM. For the same compound, the pIC50 on human Eg5 motor domain is at least 5.30.
In the case of `CC(C)(C)C(=O)NC1=NN(C(=O)C(C)(C)C)C(CCNCCCN2CCCC2=O)(c2ccccc2)S1` (stereo not drawn) [Compound 9], the GI50 in experiment [1] was determined as 0.065 µM. The pIC50 on human Eg5 motor domain is at least 5.30.
On to `CC(=O)N1N=C(N2CCCC2=O)SC1(CCCN)c1ccccc1` (stereo not drawn) [Compound 90], for which the pIC50 on human Eg5 motor domain was at least 5.30.
On the same count and under the same terms, in the case of `CC(C)(C)C(=O)NC1=NN(C(=O)C(C)(C)C)C(CCCNCCCO)(c2ccccc2)S1` (stereo not drawn) [Compound 29] it was at least 5.30; in that of `CC(C)(C)C(=O)N1N=C(N2CCCCC2=O)SC1(CCCN)c1ccccc1` (stereo not drawn) [Compound 83], at least 5.30.

Source of the values: patent publication US20070276017A1, “Thiadiazoline Derivative” (priority 2003, published 2007).
